Counter-ions that a name gives are not always drawn. Like-named read-outs stand apart in the source and are kept apart here.
How the values were obtained:
[1] = Acute toxicity, up-and-down method; conditions: mouse, in vivo; iv (caudal vein), ddN male mice
Procedure: Using ddN male mice, the acute toxicity level of each test compound was determined in accordance with an up-and-down method. Some of the test compounds used were dissolved in physiological saline and administered through the caudal vein.

[2] = test system: glutamic acid at neuromuscular junctions of crayfish (opener muscles of the first walking legs); experiment: Blocking effects against glutamic acid at neuromuscular junctions of crayfish (L-glutamic acid-induced depolarization); assay type: cell-based; conditions: 5 min; suppression rate of depolarization by L-glutamic acid (10^-4 M); 5-minute pretreatment with test compound 2×10^-4 M
From the text: The opener muscles of the first walking legs of crayfish were used as experimental materials. The neuromuscular sample was held in a bath in which a physiological solution [composition (mM): NaCl (195), CaCl2 (18), KCl (5.4), tris-maleate buffer (pH 7.5; 10), glucose (11)] for use with the crayfish was perfused at room temperature and at a constant flow rate. A glass micro-electrode filled with a 3M-KCl solution was inserted in a central part of the muscle fiber to intracellularly record changes in the potential of the muscular cell membrane.
The blocking effect of each test compound against glutamic acid was evaluated in terms of the suppression rate to depolarization which was induced by bath-applying L-glutamic acid (10^-4 M) in a 5-minute pretreatment with a solution of the test compound (2×10^-4 M).

[3] = test system: anemic decerebrate rigidity (Wistar male rats); experiment: Effects on anemic decerebrate rigidity (EMG of M. triceps brachii); assay type: in vivo; conditions: Rattus norvegicus, iv, 10 min, read-out: Suppression rate (rigidity, EMG pulse area)
Procedure: An anemic decerebrate rigidity sample was prepared principally in accordance with the procedure of Fukuda et al. [Japan. […] Wistar male rats (body weight: 270 to 350 g) were held on their backs and incised at their cervices under etherization. After the trachea and common carotid arteries were exposed, the trachea was cannulated and the bilateral common carotid arteries and esophagus were then double-ligated and cut. Thereafter, its occipital bone was exposed through which a circular hole was bored to double-ligate the centrally extending basilar artery. As each rat started coming out of anesthetization, its front limbs became rigid. Measurement was conducted by recording electromyographic (EMG) response from the muscle of the forelimb (M. triceps brachii) of the rat in the rigid state. The EMG pulses were converted to accumulated values every 10 seconds and recorded as a histogram on a recorder.
The effect of each test compound on the rigidity was evaluated in terms of the suppression rate. This rate was calculated first by determining the area of a decreased EMG pulse part on the histogram upon passage of 10 minutes after administration of a physiological saline solution of each test compound (3 mg/kg) through the femoral vein and then in accordance with the following equation.
A: EMG pulse area when no test compound was administered (control).

[4] = 3 mg/kg through the femoral vein, 10 minutes after administration

CC(C)C[C@H](NCCCN1CCCCC1)[C@@H](O)c1ccccc1.Cl.Cl [Compound 19, (1S,2S)-4-methyl-1-phenyl-2-(3-piperidinopropylamino)pentan-1-ol dihydrochloride]
LD50 [1]: 28.4 mg/kg
inhibition at 200 µM [2]: 100%

C[C@H](NCCN1CCOCC1)[C@H](O)c1ccccc1 (racemic) [Comparative compound 3, (1RS,2SR)-2-(2-morpholinoethylamino)-1-phenylpropan-1-ol dihydrochloride, reference compound]
inhibition in vivo at 3 mg/kg [3]: 1%

CC(C)C[C@H](NCCCN(C)C)[C@H](O)c1ccccc1 (racemic) [Compound 27, (1RS,2SR)-2-(3-dimethylaminopropylamino)-4-methyl-1-phenylpentan-1-ol dihydrochloride]
inhibition at 200 µM [2]: 95%

CC(C)C[C@H](NCCN1CCCC1)[C@H](O)c1ccccc1 (racemic) [Compound 31, (1RS,2SR)-4-methyl-1-phenyl-2-(2-pyrrolidinoethylamino)pentan-1-ol dihydrochloride]
inhibition at 200 µM [2]: 91%

Cc1cccc([C@@H](O)[C@H](CC(C)C)NCCCN2CCCCC2)c1 (racemic) [Compound 49, (1RS,2SR)-4-methyl-1-(3-methylphenyl)-2-(3-piperidinopropylamino)pentan-1-ol dihydrochloride]
inhibition at 200 µM [2]: 100%

CC(C)C[C@H](NCCCN1CCCCC1)[C@H](O)c1ccccc1.Cl.Cl [Compound 17, (1R,2S)-4-methyl-1-phenyl-2-(3-piperidinopropylamino)pentan-1-ol dihydrochloride]
LD50 [1]: 15.4 mg/kg
inhibition at 200 µM [2]: 100%

CC(C)C[C@H](NCCCN1CCCCC1)[C@H](O)c1ccc(Cl)cc1 (racemic) [Compound 57, (1RS,2SR)-1-(4-chlorophenyl)-4-methyl-2-(3-piperidinopropylamino)pentan-1-ol dihydrochloride]
inhibition at 200 µM [2]: 99%

CCCCCC[C@H](NCCCN1CCCCC1)[C@H](O)c1ccccc1 (racemic) [Compound 7, (1RS,2SR)-1-phenyl-2-(3-piperidinopropylamino)octan-1-ol dihydrochloride]
inhibition at 200 µM [2]: 98%

CC(C)CC[C@H](NCCN1CCCC1)[C@H](O)c1ccccc1.Cl.Cl (racemic) [Compound 43, (1RS,2SR)-5-methyl-1-phenyl-2-(2-pyrrolidinoethylamino)hexan-1-ol dihydrochloride]
inhibition in vivo at 3 mg/kg [3, 4]: 16.1%
LD50 [1]: 31.9 mg/kg
inhibition at 200 µM [2]: 95%

CC(C)CC[C@H](NCCN1CCCCC1)[C@H](O)c1ccccc1.Cl.Cl (racemic) [Compound 41, (1RS,2SR)-5-methyl-1-phenyl-2-(2-piperidinoethylamino)hexan-1-ol dihydrochloride]
inhibition in vivo at 3 mg/kg [3, 4]: 23.5%
LD50 [1]: 29.5 mg/kg
inhibition at 200 µM [2]: 94%

CO[C@H](c1ccccc1)[C@H](CCC(C)C)NCCCN1CCCCC1 (racemic) [Compound 59, (1RS,2SR)-5-methyl-1-phenyl-2-(3-piperidinopropylamino)hexan-1-ol methylether dihydrochloride]
inhibition at 200 µM [2]: 97%

CCCCCCCC[C@H](NCCCN1CCCCC1)[C@H](O)c1ccccc1 (racemic) [Compound 11, (1RS,2SR)-1-phenyl-2-(3-piperidinopropylamino)decan-1-ol dihydrochloride]
inhibition at 200 µM [2]: 100%

Cc1ccc([C@@H](O)[C@H](CC(C)C)NCCCN2CCCCC2)cc1 (racemic) [Compound 51, (1RS,2SR)-4-methyl-1-(4-methylphenyl)-2-(3-piperidinopropylamino)pentan-1-ol dihydrochloride]
inhibition at 200 µM [2]: 100%

Cc1ccc([C@@H](O)[C@@H](CC(C)C)NCCCN2CCCCC2)cc1 (relative stereo) [Compound 52, (1RS,2RS)-4-methyl-1-(4-methylphenyl)-2-(3-piperidinopropylamino)pentan-1-ol dihyrochloride]
inhibition at 200 µM [2]: 93%

CC(C)CC[C@H](NCCCN1CCCCCC1)[C@H](O)c1ccccc1.Cl.Cl (racemic) [Compound 45, (1RS,2SR)-5-methyl-2-[3-(perhydroazepin-1-yl)propylamino]-1-phenylhexan-1-ol dihydrochloride]
inhibition in vivo at 3 mg/kg [3, 4]: 90.5%
LD50 [1]: 12.8 mg/kg
inhibition at 200 µM [2]: 100%

CC(C)C[C@H](NCCCN1CCCCC1)[C@H](O)c1ccc(F)cc1 (racemic) [Compound 55, (1RS,2SR)-1-(4-fluorophenyl)-4-methyl-2-(3-piperidinopropylamino)pentan-1-ol dihydrochloride]
inhibition at 200 µM [2]: 99%

CC(C)C[C@@H](NCCCN1CCCCC1)[C@H](O)c1ccccc1 [Compound 20, (1R,2R)-4-methyl-1-phenyl-2-(3-piperidinopropylamino)pentan-1-ol dihydrochloride]
inhibition at 200 µM [2]: 98%

CC(C)CC[C@H](NCCCN1CCCC1)[C@H](O)c1ccccc1.Cl.Cl (racemic) [Compound 35, (1RS,2SR)-5-methyl-1-phenyl-2-(3-pyrrolidinopropylamino)hexan-1-ol dihydrochloride]
inhibition in vivo at 3 mg/kg [3, 4]: 21.6%
LD50 [1]: 26.7 mg/kg
inhibition at 200 µM [2]: 100%

CC(C)C[C@H](NCCCN1CCOCC1)[C@H](O)c1ccccc1 (racemic) [Compound 25, (1RS,2SR)-4-methyl-2-(3-morpholinopropylamino)-1-phenylpentan-1-ol dihydrochloride]
inhibition at 200 µM [2]: 90%

CC(C)CC[C@@H](NCCCN1CCCCC1)[C@H](O)c1ccccc1.Cl.Cl (racemic) [Compound 22, (1RS,2RS)-5-methyl-1-phenyl-2-(3-piperidinopropylamino)hexan-1-ol dihydrochloride]
inhibition in vivo at 3 mg/kg [3, 4]: 42.3%
LD50 [1]: 19 mg/kg
inhibition at 200 µM [2]: 100%

CC(C)CC[C@H](NCCCN1CCOCC1)[C@H](O)c1ccccc1 (racemic) [Compound 37, (1RS,2SR)-5-methyl-2-(3-morpholinopropylamino)-1-phenylhexan-1-ol dihydrochloride]
inhibition at 200 µM [2]: 99%

C[C@H](NCCN1CCCC1)[C@H](O)c1ccccc1 (racemic) [Comparative compound 2, (1RS,2SR)-1-phenyl-2-(2-pyrrolidinoethylamino)propan-1-ol dihydrochloride, reference compound]
inhibition in vivo at 3 mg/kg [3]: 2.2%

CCCCC[C@@H](NCCCN1CCCCC1)[C@H](O)c1ccccc1 (racemic) [Compound 6, (1RS,2RS)-1-phenyl-2-(3-piperidinopropylamino)heptan-1-ol dihydrochloride]
inhibition at 200 µM [2]: 100%

C[C@H](NCCN(C)C)[C@H](O)c1ccccc1 (racemic) [Comparative compound 4, (1RS,2SR)-2-(2-dimethylaminoethylamino)-1-phenylpropan-1-ol dihydrochloride, reference compound]
inhibition in vivo at 3 mg/kg [3]: 1.1%

Cc1ccc(C(=O)C(C)CN2CCCCC2)cc1 (stereo not shown) [Comparative compound 5, tolperisone hydrochloride, reference compound]
inhibition in vivo at 3 mg/kg [3, 4]: 4.8%

CC(C)C[C@H](NCCN1CCCCC1)[C@H](O)c1ccccc1 (racemic) [Compound 29, (1RS,2SR)-4-methyl-1-phenyl-2-(2-piperidinoethylamino)pentan-1-ol dihydrochloride]
inhibition at 200 µM [2]: 93%

CC(C)C[C@@H](NCCCN1CCCCC1)[C@H](O)c1ccccc1.Cl.Cl (racemic) [Compound 16, (1RS,2RS)-4-methyl-1-phenyl-2-(3-piperidinopropylamino)pentan-1-ol dihydrochloride]
LD50 [1]: 28.8 mg/kg
inhibition at 200 µM [2]: 95%

CC(C)CC[C@H](NCCCN(C)C)[C@H](O)c1ccccc1 (racemic) [Compound 39, (1RS,2SR)-2-(3-dimethylaminopropylamino)-5-methyl-1-phenylhexan-1-ol dihydrochloride]
inhibition at 200 µM [2]: 100%

CC(C)C[C@@H](NCCCN1CCCCC1)[C@@H](O)c1ccccc1 [Compound 18, (1S,2R)-4-methyl-1-phenyl-2-(3-piperidinopropylamino)pentan-1-ol dihydrochloride]
inhibition at 200 µM [2]: 97%

CCN(CCCN1CCCCC1)[C@@H](CCC(C)C)[C@H](O)c1ccccc1 (racemic) [Compound 65, (1RS,2SR)-2-[ethyl-(3-piperidinopropyl)amino]-5-methyl-1-phenylhexan-1-ol dihydrochloride]
inhibition at 200 µM [2]: 99%

Cc1ccccc1[C@@H](O)[C@H](CC(C)C)NCCCN1CCCCC1 (racemic) [Compound 47, (1RS,2SR)-4-methyl-1-(2-methylphenyl)-2-(3-piperidinopropylamino)pentan-1-ol dihydrochloride]
inhibition at 200 µM [2]: 100%

CC(C)C[C@@H](NCCCN1CCCCC1)[C@H](O)c1ccc(Cl)cc1 (racemic) [Compound 58, (1RS,2RS)-1-(4-chlorophenyl)-4-methyl-2-(3-piperidinopropylamino)pentan-1-ol dihydrochloride]
inhibition at 200 µM [2]: 97%

COc1ccc([C@@H](O)[C@H](CC(C)C)NCCCN2CCCCC2)cc1 (racemic) [Compound 53, (1RS,2SR)-1-(4-methoxyphenyl)-4-methyl-2-(3-piperidinopropylamino)pentan-1-ol dihydrochloride]
inhibition at 200 µM [2]: 91%

CC(C)C[C@H](NCCCN1CCCC1)[C@H](O)c1ccccc1 (racemic) [Compound 23, (1RS,2SR)-4-methyl-1-phenyl-2-(3-pyrrolidinopropylamino)pentan-1-ol dihydrochloride]
inhibition at 200 µM [2]: 97%

CC(C)C[C@H](NCCCN1CCCCC1)[C@H](O)c1ccccc1.Cl.Cl (racemic) [Compound 15, (1RS,2SR)-4-methyl-1-phenyl-2-(3-piperidinopropylamino)pentan-1-ol dihydrochloride]
LD50 [1]: 23.6 mg/kg
inhibition at 200 µM [2]: 100%

— patent US5250546A, “Amino-alcohol derivatives and processes for their preparation” (Nippon Chemiphar Co., Ltd., priority 1984, dated 1993)
